According to patent publication US8192962B2, “Processes for detecting toxic substances” (Daikin Industries, Ltd., priority 2001, dated 2012):

Test system: Energy system protein genes
Experiment: DNA chip mRNA expression in yeast, energy system protein genes (Table 4)
Type: cell-based, Saccharomyces cerevisiae S288C
Protocol: Yeast (Saccharomyces cerevisiae S288C (α SUC2mal mel gap2 CUP1)) were incubated at 25° C. on YPD medium (yeast extract 1%, polypepton 2%, glucose 2%). One of toxic chemical substances was added to the cells at logarithmic growth phase, and the cells were further incubated for two hours. Cells were cultured without any chemical substance in the same condition, and were used as control. Concentrations of the chemical substances were defined to inhibit the growth of the yeast but not lead to death.
After completion of the incubation, the culture was centrifuged to collect the cells. To the cells, sodium acetate buffer (50 mM sodium acetate, 10 mM EDTA, 1% SDS) was added, and the mixture was shaken at 65° C. for five minutes, followed by returning to room temperature, and obtaining the supernatant, of which the procedures were repeated two times. To the supernatant, ½ amount of a solution of phenol/chloroform was added, and the mixture was centrifuged to give a supernatant, which was added with an equal amount of chloroform, and the mixture was centrifuged to give a supernatant. To the supernatant, an equal amount of isopropanol containing 0.3 M sodium acetate was added, and the mixture was allowed to stand at room temperature for 30 minutes, after which the mixture was centrifuged to give a sediment of the whole RNAs. Seventy % ethanol was added to the sediment, and the mixture was again centrifuged to give a sediment, which was then dried and dissolved in water. mRNA was isolated from the whole RNAs as followings. In view of the fact that a poly A chain is attached to the 3′ terminus of mRNA, a polynucleotide having a poly T structure which was immobilized on the surface of latex beads was used to trap the mRNA, and then the mRNA was washed and eluted with spine column (Oligotex-dT30<Super>mRNA Purification Kit, Takara). Reverse transcription of the mRNA was conducted with a reverse transcriptase (Super Script II Reverse Transcriptase; catalogue No. 18064-014, GibcoBRL) using fluorescence-labeled nucleotides to give cDNAs that were introduced with Cy3-dUTP or Cy5-dUTP during the reverse transcription.
The labeled cDNAs were dissolved in TE buffer (10mM Tris-HCl/1 mM EDTA, pH8.0), and the solution was dropped on the DNA chip containing the whole genes of yeast (DNA Chip Research Inc. Japan) so that the cDNAs were hybridized on the DNA chip at 65° C. for over 12 hours. The fluoresces intensity of the DNA chip was read with a scanner, and the ratio relative to the fluorescence intensity resulting from the absence of chemical substance was estimated as the following, which is shown in Tables 1 to 9: […]

Measured: The level of expressed mRNA in the presence of chemical substance/The level of expressed mRNA in the absence of chemical substance

C[S+](C)[O-] [(15), dimethylsulfoxide]
1.6: yeast gene YEL071W, cells incubated two hours with the chemical substance | yeast gene YKL060C, cells incubated two hours with the chemical substance | yeast gene YLR304C, cells incubated two hours with the chemical substance | yeast gene YNL237W | yeast gene YOL086C, cells incubated two hours with the chemical substance
2.3: yeast gene YJL052W | yeast gene YNL331C
2.0: yeast gene YGR244C | yeast gene YHR174W | yeast gene YOR347C
1.0: yeast gene YBR126C | yeast gene YDR231C | yeast gene YKL035W | yeast gene YLR345W | yeast gene YOR221C
2.7: yeast gene YGL062W | yeast gene YGR256W | yeast gene YHR179W
1.1: yeast gene YIL111W | yeast gene YML054C | yeast gene YNL071W | yeast gene YOL157C
0.9: yeast gene YAL054C | yeast gene YAL060W | yeast gene YKL150W | yeast gene YMR105C | yeast gene YMR118C | yeast gene YNL037C
1.4: yeast gene YCR012W | yeast gene YEL020C | yeast gene YIL172C | yeast gene YOL126C | yeast gene YPL171C
2.5: yeast gene YKR097W
0.4: yeast gene YDL181W, cells incubated two hours with the chemical substance | yeast gene YEL039C, cells incubated two hours with the chemical substance | yeast gene YLL041C, cells incubated two hours with the chemical substance | yeast gene YLR395C, cells incubated two hours with the chemical substance
3.0: yeast gene YOL165C
2.1: yeast gene YJR009C
2.4: yeast gene YDR380W | yeast gene YGR254W
1.2: yeast gene YBR145W | yeast gene YOR136W | yeast gene YPL240C
5.6: yeast gene YIL160C
1.8: yeast gene YBL058W, cells incubated two hours with the chemical substance | yeast gene YER178W | yeast gene YHL008C | yeast gene YKL152C | yeast gene YML100W | yeast gene YMR089C
3.4: yeast gene YCL040W
1.9: yeast gene YBR196C | yeast gene YGR192C | yeast gene YML125C
0.6: yeast gene YBR299W | yeast gene YDL174C | yeast gene YFR053C | yeast gene YGR207C | yeast gene YIL045W | yeast gene YJR048W
0.3: yeast gene YML087C
0.5: yeast gene YDL078C, cells incubated two hours with the chemical substance | yeast gene YDR529C, cells incubated two hours with the chemical substance | yeast gene YGR062C, cells incubated two hours with the chemical substance, 25° C., YPD medium | yeast gene YJL166W, cells incubated two hours with the chemical substance | yeast gene YKL085W, cells incubated two hours with the chemical substance | yeast gene YKR058W, cells incubated two hours with the chemical substance, 25° C., YPD medium | yeast gene YLR295C, cells incubated two hours with the chemical substance, 25° C., YPD medium | yeast gene YML120C, cells incubated two hours with the chemical substance
0.7: yeast gene YCR005C | yeast gene YDL067C, cells incubated two hours with the chemical substance | yeast gene YDL085W, cells incubated two hours with the chemical substance | yeast gene YDR178W, cells incubated two hours with the chemical substance | yeast gene YGL191W, cells incubated two hours with the chemical substance | yeast gene YGR174C, cells incubated two hours with the chemical substance | yeast gene YKL016C, cells incubated two hours with the chemical substance | yeast gene YLR038C, cells incubated two hours with the chemical substance | yeast gene YLR164W, cells incubated two hours with the chemical substance | yeast gene YPL031C, cells incubated two hours with the chemical substance | yeast gene YPR006C
3.2: yeast gene YPL088W
2.6: yeast gene YJR155W | yeast gene YLR273C
3.5: yeast gene YGR087C, cells incubated two hours with the chemical substance
1.5: yeast gene YGR008C
4.2: yeast gene YDL243C
0.8: yeast gene YDR298C, cells incubated two hours with the chemical substance | yeast gene YER061C, cells incubated two hours with the chemical substance | yeast gene YGL253W | yeast gene YIR031C, cells incubated two hours with the chemical substance | yeast gene YLR174W, cells incubated two hours with the chemical substance | yeast gene YLR377C, cells incubated two hours with the chemical substance | yeast gene YMR261C, cells incubated two hours with the chemical substance | yeast gene YPL271W
4.8: yeast gene YCR107W
3.1: yeast gene YAL038W | yeast gene YFL057C | yeast gene YPR026W
